Test results taken from publication PMC11318023, “Discovery of VU6008677: A Structurally Distinct Tricyclic M4 Positive Allosteric Modulator with Improved CYP450 Profile” (ACS Medicinal Chemistry Letters, 2024).
Like-named read-outs stand apart in the source and are kept apart here.

What was measured:
[1] = Binding in brain homogenate from rat, equilibrium dialysis; format: in vitro ADME; conditions: rat brain homogenates; for fraction unbound at 6 h, 1 µM: rat, brain homogenate, read-out: rat fu,brain
[2] = Intrinsic clearance in rat liver microsomes (substrate depletion), predicted hepatic clearance; format: in vitro ADME; conditions: for CLint scaled at 1 µM: pH 7.4, rat liver microsomes; for CLhep, rat (predicted hepatic clearance): predicted from rat microsomal CLint
[3] = Binding in plasma from human, equilibrium dialysis; format: in vitro ADME; conditions: for fraction unbound at 6 h, 5 µM: human, plasma, read-out: human fu,plasma
[4] = biological target: CYP 2D6 (Homo sapiens, UniProt P10635); test: CYP450 inhibition in pooled human liver microsomes, CYP-specific probe substrates; format: in vitro ADME; conditions: pooled HLM, NADPH, CYP-specific probe substrate
CYP 2D6, sequence (P10635 whole entry): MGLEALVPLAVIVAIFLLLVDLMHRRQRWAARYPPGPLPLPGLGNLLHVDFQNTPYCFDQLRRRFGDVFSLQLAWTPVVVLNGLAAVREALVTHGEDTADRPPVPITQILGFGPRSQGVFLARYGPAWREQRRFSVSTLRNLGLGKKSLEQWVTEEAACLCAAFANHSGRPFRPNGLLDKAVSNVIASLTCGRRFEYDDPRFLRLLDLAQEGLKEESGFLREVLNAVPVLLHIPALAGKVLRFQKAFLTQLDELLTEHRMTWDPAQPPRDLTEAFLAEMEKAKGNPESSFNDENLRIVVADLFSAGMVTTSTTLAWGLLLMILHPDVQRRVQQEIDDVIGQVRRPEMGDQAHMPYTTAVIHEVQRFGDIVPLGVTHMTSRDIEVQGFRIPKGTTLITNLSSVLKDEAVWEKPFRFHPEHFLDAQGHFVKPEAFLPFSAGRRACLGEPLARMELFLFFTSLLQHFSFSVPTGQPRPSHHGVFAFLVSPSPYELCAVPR

[5] = biological target: CYP 2C9 (Homo sapiens, UniProt P11712); test: as above; format: in vitro ADME; conditions: pooled HLM, NADPH, CYP-specific probe substrate
CYP 2C9, sequence (P11712 whole entry): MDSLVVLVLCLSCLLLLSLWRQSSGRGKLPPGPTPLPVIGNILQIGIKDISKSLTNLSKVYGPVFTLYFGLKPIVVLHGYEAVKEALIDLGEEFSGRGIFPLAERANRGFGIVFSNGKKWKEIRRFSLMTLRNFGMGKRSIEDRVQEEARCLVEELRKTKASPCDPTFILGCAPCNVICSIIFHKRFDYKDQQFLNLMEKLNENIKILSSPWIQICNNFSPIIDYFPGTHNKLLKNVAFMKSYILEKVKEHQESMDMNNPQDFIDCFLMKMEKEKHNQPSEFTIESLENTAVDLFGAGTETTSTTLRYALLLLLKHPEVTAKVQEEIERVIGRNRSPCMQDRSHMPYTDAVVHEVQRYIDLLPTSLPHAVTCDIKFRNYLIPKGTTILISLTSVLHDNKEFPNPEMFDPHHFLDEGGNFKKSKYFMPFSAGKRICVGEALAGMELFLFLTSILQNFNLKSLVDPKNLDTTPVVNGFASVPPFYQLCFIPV

[6] = Binding in plasma from rat, equilibrium dialysis; format: in vitro ADME; conditions: read-out: rat fu,plasma
[7] = biological target: T1, human M2 (hM2) (Homo sapiens, UniProt P08172); test: Calcium mobilization assay, hM2/Gqi5-CHO cells, with EC20 acetylcholine; format: cell-based
T1 construct: expressed in transfected cells
T1 sequence (P08172 1-466): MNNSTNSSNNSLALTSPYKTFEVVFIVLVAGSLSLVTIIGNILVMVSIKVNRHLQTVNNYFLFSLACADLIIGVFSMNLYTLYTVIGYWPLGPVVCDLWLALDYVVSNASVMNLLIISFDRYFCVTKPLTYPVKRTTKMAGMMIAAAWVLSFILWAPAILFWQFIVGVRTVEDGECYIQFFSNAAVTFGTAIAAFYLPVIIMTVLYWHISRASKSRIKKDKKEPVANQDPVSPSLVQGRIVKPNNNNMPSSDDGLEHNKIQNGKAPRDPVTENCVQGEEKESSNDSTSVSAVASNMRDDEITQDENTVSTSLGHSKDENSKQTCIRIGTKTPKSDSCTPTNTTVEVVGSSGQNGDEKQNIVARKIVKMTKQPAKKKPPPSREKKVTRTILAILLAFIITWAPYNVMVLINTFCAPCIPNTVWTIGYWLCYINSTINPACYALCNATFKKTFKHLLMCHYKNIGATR
Text: buffer remained in the cell plates. […] After establishment of a […]

[8] = biological target: T2, CYP 1A2 (Homo sapiens, UniProt P05177); test: CYP450 inhibition in pooled human liver microsomes, CYP-specific probe substrates; format: in vitro ADME; conditions: for IC50: pooled HLM, NADPH, CYP-specific probe substrate
T2 sequence (P05177 1-516): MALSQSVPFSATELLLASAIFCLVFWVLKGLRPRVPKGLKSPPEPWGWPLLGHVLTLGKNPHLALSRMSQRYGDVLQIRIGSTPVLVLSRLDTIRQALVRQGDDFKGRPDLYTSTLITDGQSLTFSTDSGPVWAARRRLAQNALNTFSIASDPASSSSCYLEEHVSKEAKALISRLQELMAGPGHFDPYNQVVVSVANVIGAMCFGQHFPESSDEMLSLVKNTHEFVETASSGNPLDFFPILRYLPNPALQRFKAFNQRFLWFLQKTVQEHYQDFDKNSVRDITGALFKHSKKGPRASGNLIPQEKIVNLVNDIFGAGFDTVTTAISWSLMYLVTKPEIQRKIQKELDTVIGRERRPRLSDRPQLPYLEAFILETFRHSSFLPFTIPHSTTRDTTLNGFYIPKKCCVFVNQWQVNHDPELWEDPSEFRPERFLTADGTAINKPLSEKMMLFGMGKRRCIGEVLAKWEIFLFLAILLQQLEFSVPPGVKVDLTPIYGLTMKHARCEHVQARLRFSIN

[9] = biological target: CYP 3A4 (Homo sapiens, UniProt P08684); test: as above; format: in vitro ADME; conditions: pooled HLM, NADPH, CYP-specific probe substrate
CYP 3A4, sequence (P08684 whole entry): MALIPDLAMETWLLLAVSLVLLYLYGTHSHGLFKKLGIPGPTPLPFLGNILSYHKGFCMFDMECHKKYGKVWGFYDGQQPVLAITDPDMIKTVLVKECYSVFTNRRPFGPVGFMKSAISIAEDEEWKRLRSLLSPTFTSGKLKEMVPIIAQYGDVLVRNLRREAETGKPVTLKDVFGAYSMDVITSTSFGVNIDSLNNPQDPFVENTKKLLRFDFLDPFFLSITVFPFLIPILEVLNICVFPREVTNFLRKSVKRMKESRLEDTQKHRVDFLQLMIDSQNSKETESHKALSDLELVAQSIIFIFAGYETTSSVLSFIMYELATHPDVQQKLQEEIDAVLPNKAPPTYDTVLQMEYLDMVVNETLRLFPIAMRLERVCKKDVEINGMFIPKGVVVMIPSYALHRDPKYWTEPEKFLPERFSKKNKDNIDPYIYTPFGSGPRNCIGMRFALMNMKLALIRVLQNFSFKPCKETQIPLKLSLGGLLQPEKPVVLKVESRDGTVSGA

[10] = Intrinsic clearance in human liver microsomes (substrate depletion), predicted hepatic clearance; format: in vitro ADME; conditions: for CLint scaled at 1 µM: pH 7.4, human liver microsomes; for CLhep, human (predicted hepatic clearance): predicted from human microsomal CLint
[11] = biological target: T3, human M4 (hM4) (Homo sapiens, UniProt P08173); test: Calcium mobilization assay, hM4/Gqi5-CHO cells, with EC20 acetylcholine (PAM); conditions: for hM4 pEC50 / hM4 %ACh Max / EC50: hM4/Gqi5-CHO cells; for hM4 %ACh Max: maximum response; for EC50: read-out: hM4 EC50
T3 sequence (P08173 1-479): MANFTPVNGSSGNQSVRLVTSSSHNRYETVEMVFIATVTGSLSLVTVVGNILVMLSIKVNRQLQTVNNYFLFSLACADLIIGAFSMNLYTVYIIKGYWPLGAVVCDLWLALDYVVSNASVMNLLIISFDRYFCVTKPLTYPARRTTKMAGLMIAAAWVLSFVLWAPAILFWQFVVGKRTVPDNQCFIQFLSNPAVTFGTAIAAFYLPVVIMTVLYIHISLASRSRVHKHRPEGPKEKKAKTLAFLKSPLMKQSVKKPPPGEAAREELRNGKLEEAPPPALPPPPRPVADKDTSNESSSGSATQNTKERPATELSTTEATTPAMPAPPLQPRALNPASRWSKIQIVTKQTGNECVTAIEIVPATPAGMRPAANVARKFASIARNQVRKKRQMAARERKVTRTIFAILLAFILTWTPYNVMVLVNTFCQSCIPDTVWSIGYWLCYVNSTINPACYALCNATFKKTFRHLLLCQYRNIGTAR

[12] = calcium mobilization, EC20 acetylcholine
[13] = calcium mobilization, EC20 fixed concentration of acetylcholine

| Structure (SMILES) | fraction unbound at 6 h, 1 µM [1] | CLint scaled at 1 µM [2] [mL/min/kg] | CLhep, rat (predicted hepatic clearance) [2] [mL/min/kg] | fraction unbound at 6 h, 5 µM [3] | IC50 [4] [µM] | IC50 [5] [µM] | fraction unbound at 6 h, 5 µM [6] | IC50 [8] [nM] | IC50 [9] [µM] | CLint scaled at 1 µM [10] [mL/min/kg] | CLhep, human (predicted hepatic clearance) [10] [mL/min/kg] | hM4 pEC50 [11, 12] | hM4 %ACh Max [11, 12] [%] | EC50 [11, 13] [µM] | further results |
| --- | --- | --- | --- | --- | --- | --- | --- | --- | --- | --- | --- | --- | --- | --- | --- |
| Cc1nc2sc3c(NC4CC(F)(F)C4)nncc3c2c(C)c1Cl.Cl [Compound 22k] | 0.008 | 1670 | 67 | 0.01 | 25.2 | > 30 | 0.057 | 980 | > 30 | 185 | 19 | – | – | – | EC50 [7]: 260 nM; hM2 % ACh Max [7]: 49% |
| Cc1nc2oc3c(NCc4ccc(C(C)(C)O)cc4)ncnc3c2c(C)c1Cl [Compound 14c] | – | – | – | – | – | – | – | – | – | – | – | 5.93 | 62 | 1.2 | – |
| Cc1nc2sc3c(NC4CCC4)nncc3c2c(C)c1Cl.Cl [Compound 22j] | 0.006 | 1280 | 66 | 0.005 | 19.2 | > 30 | 0.026 | 520 | > 30 | 49 | 15 | – | – | – | EC50 [7]: > 10000 nM; hM2 % ACh Max [7]: 44% |
| Cc1ncc(CNc2ncnc3c2sc2nc(C)c(Cl)c(C)c23)cn1.Cl [Compound 13b] | – | – | – | – | – | – | – | – | – | – | – | < 5.00 | 75 | > 10 | – |
| Cc1nc2oc3c(N(C)C)ncnc3c2c(C)c1Cl.Cl [Compound 14e] | – | – | – | – | – | – | – | – | – | – | – | 5.86 | – | 1.4 | – |
| Cc1nc2sc3c(NCC4CCC4)nncc3c2c(C)c1Cl.Cl [Compound 22f] | – | – | – | – | – | – | – | – | – | – | – | 6.40 | – | – | fold loss (decrease) in hM4 potency ([11]; relative to the comparator analogue (13g, 13k vs 13l; 22f vs 22j)): ~5 fold |
| Cc1nc2oc3c(NC4CC4)ncnc3c2c(C)c1Cl.Cl [Compound 14o] | 0.017 | 175 | 50 | < 0.01 | ≥ 30 | ≥ 30 | 0.06 | < 100 | ≥ 30 | 37 | 13 | – | – | – | human fu,plasma ([3]; fraction unbound): 0.007; hM2 EC50 [7]: inactive |
| COc1ccc(CNc2nncc3c2sc2nc(C)c(Cl)c(C)c23)cc1F [Compound 22a] | – | – | – | – | – | – | – | – | – | – | – | 5.88 | 69 | 1.3 | – |
| COc1ccc(CNc2ncnc3c2oc2nc(C)c(Cl)c(C)c23)cc1F.Cl [Compound 14a] | – | – | – | – | – | – | – | – | – | – | – | <5.00 | 49 | > 10 | – |
| COCCCNc1nncc2c1sc1nc(C)c(Cl)c(C)c12.Cl [Compound 22g] | – | – | – | – | – | – | – | – | – | – | – | 6.72 | 67 | 0.19 | – |
| Cc1nc2sc3c(NCc4ccc(OC(F)F)cc4)nncc3c2c(C)c1Cl [Compound 22e] | – | – | – | – | – | – | – | – | – | – | – | 6.27 | 41 | – | – |
| Cc1nc2oc3c(NC4CC4(C)C)ncnc3c2c(C)c1Cl.Cl (stereo not drawn) [Compound 14p] | 0.002 | 467 | 61 | 0.004 | > 30 | > 30 | 0.038 | 320 | > 30 | 168 | 19 | – | – | – | EC50 [7]: 2300 nM; hM2 % ACh Max [7]: 39% |
| Cc1nc2sc3c(NC4CC(c5ccncc5)C4)ncnc3c2c(C)c1Cl.Cl (stereo not drawn) [Compound 13h] | – | – | – | – | – | – | – | – | – | – | – | 5.82 | 84 | 1.5 | – |

Continued, in another order:

| fraction unbound at 6 h, 1 µM [1] | CLint scaled at 1 µM [2] [mL/min/kg] | CLhep, rat (predicted hepatic clearance) [2] [mL/min/kg] | fraction unbound at 6 h, 5 µM [3] | IC50 [4] [µM] | IC50 [5] [µM] | fraction unbound at 6 h, 5 µM [6] | IC50 [8] [nM] | IC50 [9] [µM] | CLint scaled at 1 µM [10] [mL/min/kg] | CLhep, human (predicted hepatic clearance) [10] [mL/min/kg] | hM4 pEC50 [11, 12] | hM4 %ACh Max [11, 12] [%] | EC50 [11, 13] [µM] | Structure (SMILES) | further results |
| --- | --- | --- | --- | --- | --- | --- | --- | --- | --- | --- | --- | --- | --- | --- | --- |
| – | – | – | – | – | – | – | – | – | – | – | 6.29 | 73 | 0.51 | Cc1nc2sc3c(N4CC5CC5C4)nncc3c2c(C)c1Cl.Cl (stereo not drawn) [Compound 22c] | – |
| 0.002 | 642 | 63 | 0.02 | > 30 | > 30 | 0.171 | 360 | > 30 | 224 | 19 | – | – | – | Cc1c(Cl)cnc2sc3c(N4CC(C#N)C4)ncnc3c12 [Compound 15f] | hM2 EC50 [7]: inactive; fold improvement of CYP 1A2 inhibition compared with ML253 ([8]; vs ML253): 3 fold |
| – | – | – | – | – | – | – | – | – | – | – | 6.50 | 84 | 0.32 | Cc1c(Cl)cnc2sc3c(NCc4ccncc4)ncnc3c12 [Compound 15d] | – |
| – | – | – | – | – | – | – | – | – | – | – | 6.39 | 51 | 0.4 | Cc1c(Cl)cnc2sc3c(NC4(C)CC4)ncnc3c12 [Compound 15b] | – |
| – | 316 | 57 | ≤ 0.01 | 0.33 | 9.1 | ≤ 0.01 | 1500 | > 30 | 79 | 17 | 7.09 | 65 | 0.081 | Cc1c(Cl)cnc2sc3c(NC4CC(c5ccncc5)C4)ncnc3c12 (stereo not drawn) [Compound 15e] | hM2 EC50 [7]: inactive |
| – | – | – | – | – | – | – | – | – | – | – | 5.22 | 45 | 6 | Cc1c(Cl)cnc2sc3c(N4CCCC4)ncnc3c12 [Compound 15a] | – |
| 0.003 | 334 | 58 | 0.008 | > 30 | > 30 | 0.031 | 640 | > 30 | 147 | 18 | – | – | – | Cc1c(Cl)cnc2sc3c(N4CC5(COC5)C4)ncnc3c12 [Compound 15h] | hM2 EC50 [7]: inactive |
| – | – | – | – | – | – | – | – | – | – | – | <5.00 | 71 | > 10 | Cc1nc2sc3c(N4CC5(COC5)C4)ncnc3c2c(C)c1Cl.Cl [Compound 13d] | EC50 ([11]; as quoted in text in μM, EC20 acetylcholine): > 10 µM |
| 0.001 to 0.005 | 423 | 60 | – | > 30 | > 15.8 | ≤ 0.01 | < 100 | 15.8 | 78 | 17 | – | – | – | Cc1nc2sc3c(NC4CC4)ncnc3c2c(C)c1Cl.Cl [Compound 13l] | rat fu,brain ([1]; fraction unbound): 0.001; EC50 [7]: 5000 nM; hM2 % ACh Max [7]: 49% |
| – | – | – | – | – | – | – | – | – | – | – | 6.34 | 71 | 0.45 | Cc1ncc(CNc2ncnc3c2sc2ncc(Cl)c(C)c23)cn1.Cl [Compound 15c] | – |
